In patent publication US20240148679A1, “METHODS AND COMPOSITIONS RELATED TO TREATMENT AND PREVENTION OF CANCER BY INHIBITION OF DGAT1 AND DGAT2” (Ohio State Innovation Foundation, priority 2019, published 2024):

Experiments:
Format in all cases: cell-based, human
liver cancer cells = assay: Liver cancer cell death with DGAT1 and DGAT2 inhibitors alone or in combination
Experimental: MHCC97L 6×10^4 12 well plate, treated at 24 hours with 1% FBS DMEM with DGAT1 and DGAT2 inhibitors. Picture taken on day 4.
HEPG2 6×10^4 12 well plate, treated at 24 hours with 1% FBS DMEM with DGAT1 and DGAT2 inhibitors. Picture taken on day 4.
HeG2 8×10^4 12 well plate, treated at 24 hours with 1% FBS DMEM with DGAT1 and DGAT2 inhibitors. Picture taken on day 4.
Huh7 4×10^4 12-well plate, treated at 24 hours with 1% FBS DMEM with DGAT1 and DGAT2 inhibitors. Picture taken on day 4.
Hep3B 6×10^4 12-well plate, treated at 24 hours with 1% FBS DMEM with DGAT1 and DGAT2 inhibitors. Picture taken on day 4.
Huh7 6×10^4 12-well plate, treated at 24 hours with 1% FBS DMEM with DGAT1 and DGAT2 inhibitors. Picture taken on day 4.

HepG2 cells [1] = assay: HepG2 cell death, trypan blue counting; conditions: DGAT1 and DGAT2 inhibitors alone or in combination, 3 days
Experimental: (A) RT-qPCR analysis of DGAT1 vs. DGAT2 mRNA expression in GBM cells (U251 and GBM30) and in liver cancer cell line (HepG2). The results are shown as mean±SD (n=3). Statistical significance was determined by a paired Student's t-test. *P<0.01; n.s., not significant. (B) Representative fluorescence imaging of LDs stained with BODIPY 493/503 (green) (upper panels) and TLC analysis of TG levels (lower panels) in GBM and liver cancer cells after treatments with the DGAT1 inhibitor A-922500 (20 μg/ml) or DGAT2 inhibitor PF-06424439 ([…]) alone or in combination for 24 hr. Nuclei were stained with Hoechst 33342 (blue). Scale bar, 10 m. LDs were quantified by the ImageJ software in more than 30 cells in each treatment group (mean±SEM). TG levels were quantified by the ImageJ software and normalized to the untreated control group (mean±SD, n=3). Statistical significance was determined by one-way ANOVA. * P<0.001; #P<0.05. (C) Percentage of dead GBM or liver cancer cells after treatment with DGAT1 or DGAT2 inhibitors alone or in combination for 3 days as in panel B. Live and dead cells were counted after trypan blue staining (mean SD, n=3). Statistical significance was determined by one-way ANOVA. * P<0.0001. […] Statistical significance was determined by one-way ANOVA. * P<0.01. […] Cell death percentage and significance were determined as in panel c (mean±SD, n=3). *P<0.0001; #P<0.001. […]

HepG2 cells [2] = assay: Lipid droplet and TG levels in liver cancer cell line HepG2
Experimental: (A) RT-qPCR analysis of DGAT1 vs. DGAT2 mRNA expression in GBM cells (U251 and GBM30) and in liver cancer cell line (HepG2). The results are shown as mean±SD (n=3). Statistical significance was determined by a paired Student's t-test. *P<0.01; n.s., not significant. (B) Representative fluorescence imaging of LDs stained with BODIPY 493/503 (green) (upper panels) and TLC analysis of TG levels (lower panels) in GBM and liver cancer cells after treatments with the DGAT1 inhibitor A-922500 (20 μg/ml) or DGAT2 inhibitor PF-06424439 ([…]) alone or in combination for 24 hr. Nuclei were stained with Hoechst 33342 (blue). Scale bar, 10 m. LDs were quantified by the ImageJ software in more than 30 cells in each treatment group (mean±SEM). TG levels were quantified by the ImageJ software and normalized to the untreated control group (mean±SD, n=3). Statistical significance was determined by one-way ANOVA. * P<0.001; #P<0.05. (C) Percentage of dead GBM or liver cancer cells after treatment with DGAT1 or DGAT2 inhibitors alone or in combination for 3 days as in panel B. Live and dead cells were counted after trypan blue staining (mean SD, n=3). Statistical significance was determined by one-way ANOVA. * P<0.0001. (D) Western blot analysis of DGAT1 expression in membrane extracts from GBM and liver cancer cells after infection with shRNA-expressing lentivirus against DGAT1 for 48 hr. PDIA1, an ER protein marker, was used as an internal control. (E) RT-qPCR analysis of DGAT2 mRNA expression in GBM and liver cancer cells after infection with shRNA-expressing lentivirus against DGAT2 for 48 hr. The expression level was normalized to control cells and shown as mean±SD (n=3). Statistical significance was determined by one-way ANOVA. * P<0.01. (F) Representative fluorescence images of LDs stained with BODIPY 493/503 (upper panels) and TLC analysis of TG levels (lower panels) in GBM and liver cancer cells after lentivirus-mediated shRNA knockdown of DGAT1 or DGAT2 alone or in combination for 48 hr. Scale bar, 10 m. Quantification and significance analysis of LDs and TG levels in different groups were the same as in panel B. * P<0.001; #P<0.05. (G) Percentage of dead GBM or liver cancer cells after lentivirus-mediated shRNA knockdown of DGAT1 or DGAT2 alone or in combination for 4 days. Cell death percentage and significance were determined as in panel c (mean±SD, n=3). *P<0.0001; #P<0.001. […]
For live cells, lipid droplets were stained with BODIPY 493/503 ([…]) (Cat #D-3922; Life Technologies) for 30 min and visualized by confocal microscopy (Carl Zeiss LSM510 Meta, 63×/1.4 NA oil). More than 30 cells were analyzed and LD numbers were quantified with the Image J software (NIH) in a 3D stack, as previously described in Geng 2016. […]

[3] = DGAT1 inhibitor in combination with DGAT2 inhibitor
[4] = inhibition of both enzymes (A-922500 + PF-06424439)
[5] = single inhibitor, 20 μg/ml, 24 hr

SMILES | liver cancer cell death (liver cancer cells; [3]) | liver cancer cell death (liver cancer cells; each single inhibitor) | cell death of HepG2 cells (HepG2 cells [1]) | LDs/TG levels (HepG2 cells [2]; [4]) | LDs/TG levels (HepG2 cells [2]; [5])
O=C(Nc1ccccc1)Nc1ccc(-c2ccc(C(=O)[C@@H]3CCC[C@H]3C(=O)O)cc2)cc1 [A-922500] | effective to kill liver cancer cells | no ability to induce liver cancer cell death | inhibition of both enzymes was required for cell death | strongly reduce | only slightly decreased
CS(=O)(=O)O.O=C([C@@H]1CCCN(c2ccc3[nH]c(C4(n5cc(Cl)cn5)CC4)nc3n2)C1)N1CCCC1 [PF-06424439] | effective to kill liver cancer cells | no ability to induce liver cancer cell death | inhibition of both enzymes was required for cell death | strongly reduce | only slightly decreased
